Columns and labels:
[1] = system: DEPDC5 knockout OPM2 cells; assay: Cell viability (CellTiter-Lumi) of DEPDC5 knockout OPM2 under immunomodulatory drugs; type: cell-based, human; settings: DEPDC5-KO OPM2; drug gradients starting from 1 μM; 5 days
Protocol: (§1) • (1) OPM2 cells in the logarithmic growth phase were seeded in a 96-well plate at 3000 cells/well. The volume of the cell suspension is 90 μl/well. • (2) Each well was added with 10 μl lenalidomide (Len), pomalidomide (Pom), CC-122, or CC-220 down the concentration gradients starting from 1 μM. Control groups with no drug treatment were set. Each drug had 7 gradients with 3 replicates. • (3) The plate was placed in a humidity-controlled environment (37° C., 5% CO2) for 5 days. • (4) Subsequently, 50 μl of CTL solution was added to each well under dark conditions. Then, the plate was placed on a shaker and shaken for 10 minutes, followed by reading on a microplate reader. • (5) The average absorbance values of the 3 replicates were used to plot the cell viability curves of OPM2 under drug treatment.
(§2) Cell viability was measured using the CellTiter-Lumi luminescent cell viability assay kit (Beyotime), with luminescence intensity reflecting cell viability, through an ATP-catalyzed luciferase reaction in the cell culture medium.

[2] = target: T1, RBM39 (Homo sapiens, UniProt Q14498); assay: Western blot of RBM39 protein level in OPM2; type: cell-based; settings: indisulam 1 μM + rapamycin 20 nM, 24 hours
T1 construct: endogenous in cells; host or cells: OPM2 myeloma cell line
T1 sequence (Q14498 1-530): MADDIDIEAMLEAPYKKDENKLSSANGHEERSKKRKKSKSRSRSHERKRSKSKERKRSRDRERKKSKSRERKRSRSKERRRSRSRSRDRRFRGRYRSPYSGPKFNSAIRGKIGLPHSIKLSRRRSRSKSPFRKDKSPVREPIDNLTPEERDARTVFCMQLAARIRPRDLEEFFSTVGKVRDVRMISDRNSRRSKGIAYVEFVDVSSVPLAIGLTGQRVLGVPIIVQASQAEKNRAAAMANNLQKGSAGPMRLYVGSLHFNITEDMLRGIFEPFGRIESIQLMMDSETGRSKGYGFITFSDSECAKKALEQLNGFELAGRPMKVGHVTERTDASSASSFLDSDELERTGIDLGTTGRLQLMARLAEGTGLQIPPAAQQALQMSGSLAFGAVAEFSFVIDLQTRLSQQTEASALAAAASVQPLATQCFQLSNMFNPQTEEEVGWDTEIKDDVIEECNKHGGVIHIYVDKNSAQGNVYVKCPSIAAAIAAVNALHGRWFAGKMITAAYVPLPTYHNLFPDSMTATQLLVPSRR
Protocol: (§3) The protein levels were analyzed using Western blot.
Different concentrations of indisulam (0, 0.1, 1 μm) and a fixed concentration of rapamycin (20 nM) were added to the myeloma cell line OPM2. After 24 hours, protein levels were analyzed using the same method as in Embodiment 3.

[3] = target: T2, GSPT1 (Homo sapiens, UniProt P15170+Q96SW2); assay: Western blot of GSPT1 protein level in leukemia cell lines HL60 and MOLT-4; type: cell-based; settings: degrader (10 nM CC90009) co-administered with varying concentrations of rapamycin; HL60, MOLT-4; 12 h
Protocol: as §3
The samples were collected after 12 h, and the protein levels were examined by the same method as in Embodiment 3.

[4] = target: T2, GSPT1; assay: Western blot of GSPT1 protein level in pancreatic cancer cell line KP4; type: cell-based; parameters: endogenous in cells; host or cells: KP4 pancreatic cancer cell line; settings: 24 hours
[5] = system: OPM2-P5000; assay: Cell viability of pomalidomide-resistant OPM2-P5000 cells; type: cell-based, human; settings: CC-92480 3 μM + rapamycin 20 nM, viability at 0, 96, 120 h
Protocol: as §1, §2
Meanwhile, this embodiment provides the following groups for cell viability test in the pomalidomide-resistant myeloma cell line OPM2-P5000: rapamycin alone (20 nM), pomalidomide alone (3 μM), CC-92480 alone (3 μM), combination treatment, and control. Cell viability was assessed on Oh, 96 h and 120 h post drug treatment using the same method as in Embodiment 1.

[6] = target: T3, IKZF3 (Homo sapiens, UniProt Q96SW2+Q9UKT9); assay: Western blot of IKZF3 in pomalidomide-resistant OPM2-P5000 and OPM2 cells; type: cell-based; settings: pomalidomide-resistant myeloma cell line (OPM2-P5000; FIG. 7b OPM2); rapamycin 20 nM
T3 construct: Cell pellets were collected after 24 h and were lysed using RIPA; The protein levels were analyzed using Western blot; endogenous in cells; host or cells: OPM2, RPMI-8226, U266 myeloma cell lines
Protocol: as §3
In this embodiment, the myeloma cell line OPM2, which is sensitive to pomalidomide was subjected to long-term high-dose pomalidomide treatment to obtain the pomalidomide-resistant cell line OPM2-P5000. Pomalidomide and CC-92480 (0.5 nM, 25 nM) were administered to OPM2 cells, and pomalidomide and CC-92480 (0.5 nM, 3 μM) were administered to OPM2-P5000 cells. These treatments were combined with a fixed concentration of rapamycin (20 nM).

[7] = target: T4, Wee1 (Homo sapiens, UniProt P30291); assay: Western blot of Wee1 protein level in OPM2; type: cell-based; settings: ZNL-02-096 10 nM + rapamycin 20 nM, 24 hours
T4 construct: endogenous in cells; host or cells: OPM2 myeloma cell line
Protocol: as §3
Different concentrations of ZNL-02-096 (0, 1, 10 nM) and a fixed concentration of rapamycin (20 nM) were added to the myeloma cell line OPM2.

[8] = target: T5, BRD4 (Homo sapiens, UniProt O60885); assay: Western blot of BRD4 protein level in OPM2; type: cell-based; settings: ARV-771 0.5 nM or 1 nM + rapamycin 20 nM, 24 hours
T5 construct: endogenous in cells; host or cells: OPM2 myeloma cell line
Protocol: as §3
Different concentrations of ARV-771 (0, 0.5, 1 nM) and a fixed concentration of rapamycin (20 nM) were added to the myeloma cell line OPM2.

[9] = target: T3, IKZF3; assay: Western blot of IKZF3 protein level in myeloma cell lines; type: cell-based
[10] = system: U266; assay: Cell viability, pomalidomide combined with rapamycin, U266; type: cell-based, human; settings: U266 (pomalidomide-resistant); viability at 0, 48, 96, 120 h; P<0.001
Protocol: as §1, with “Each drug had 7 gradients with 3 replicates. • (3) The plate was placed in a humidity-controlled environment (37° C., 5% CO2) for 5 days. • (4) Subsequently, 50 μl of CTL solution was added to each well under dark conditions.” left out
as §2
(§4) In this embodiment, the pomalidomide-sensitive myeloma cell lines (MM1S, H929 and OPM2) and the pomalidomide-resistant myeloma cell lines (U266 and RPMI-8226) were treated with mTOR signaling pathway inhibitor rapamycin alone, pomalidomide alone, a combination of rapamycin and pomalidomide, and control, respectively. Cell viability was assessed on Oh, 48 h, 96 h and 120 h post drug treatment. The detection used on each day is the same and has been described in Embodiment 1.

[11] = system: MM1S; assay: Cell viability, pomalidomide combined with rapamycin, MM1S; type: cell-based, human; settings: MM1S (pomalidomide-sensitive); viability at 0, 48, 96, 120 h; P<0.001
Protocol: as §1, with “Each drug had 7 gradients with 3 replicates. • (3) The plate was placed in a humidity-controlled environment (37° C., 5% CO2) for 5 days. • (4) Subsequently, 50 μl of CTL solution was added to each well under dark conditions.” left out
as §2, §4

[12] = system: H929; assay: Cell viability, pomalidomide combined with rapamycin, H929; type: cell-based, human; settings: H929 (pomalidomide-sensitive); viability at 0, 48, 96, 120 h; P<0.001
Protocol: as §1, with “Each drug had 7 gradients with 3 replicates. • (3) The plate was placed in a humidity-controlled environment (37° C., 5% CO2) for 5 days. • (4) Subsequently, 50 μl of CTL solution was added to each well under dark conditions.” left out
as §2, §4

[13] = target: IKZF1 (Homo sapiens, UniProt Q13422+Q96SW2)
Protocol: 25 nM of pomalidomide and varying concentrations of rapamycin were added to myeloma cell lines OPM2, RPMI-8226, and U266, respectively. Cell pellets were collected after 24 h and were lysed using RIPA. The protein levels were analyzed using Western blot.
Different concentrations of ZNL-02-096 (0, 1, 10, 10^2, 10^3 nM) and a fixed concentration of pomalidomide (25 nM) were added to the myeloma cell line OPM2. After 24 hours, protein levels were detected using the same method as in Embodiment 3.

[14] = system: RPMI-8226; assay: Cell viability, pomalidomide combined with rapamycin, RPMI-8226; type: cell-based, human; settings: RPMI-8226 (pomalidomide-resistant); viability at 0, 48, 96, 120 h; P<0.001
Protocol: as §1, with “Each drug had 7 gradients with 3 replicates. • (3) The plate was placed in a humidity-controlled environment (37° C., 5% CO2) for 5 days. • (4) Subsequently, 50 μl of CTL solution was added to each well under dark conditions.” left out
as §2, §4

[15] = system: OPM2; assay: Cell viability, pomalidomide combined with rapamycin, OPM2; type: cell-based, human; settings: OPM2 (pomalidomide-sensitive); viability at 0, 48, 96, 120 h; P<0.001
Protocol: as §1, with “Each drug had 7 gradients with 3 replicates. • (3) The plate was placed in a humidity-controlled environment (37° C., 5% CO2) for 5 days. • (4) Subsequently, 50 μl of CTL solution was added to each well under dark conditions.” left out
as §2, §4

[16] = pomalidomide 25 nM + varying concentrations of everolimus, OPM2, 24 hours

T2 sequence (P15170 whole entry): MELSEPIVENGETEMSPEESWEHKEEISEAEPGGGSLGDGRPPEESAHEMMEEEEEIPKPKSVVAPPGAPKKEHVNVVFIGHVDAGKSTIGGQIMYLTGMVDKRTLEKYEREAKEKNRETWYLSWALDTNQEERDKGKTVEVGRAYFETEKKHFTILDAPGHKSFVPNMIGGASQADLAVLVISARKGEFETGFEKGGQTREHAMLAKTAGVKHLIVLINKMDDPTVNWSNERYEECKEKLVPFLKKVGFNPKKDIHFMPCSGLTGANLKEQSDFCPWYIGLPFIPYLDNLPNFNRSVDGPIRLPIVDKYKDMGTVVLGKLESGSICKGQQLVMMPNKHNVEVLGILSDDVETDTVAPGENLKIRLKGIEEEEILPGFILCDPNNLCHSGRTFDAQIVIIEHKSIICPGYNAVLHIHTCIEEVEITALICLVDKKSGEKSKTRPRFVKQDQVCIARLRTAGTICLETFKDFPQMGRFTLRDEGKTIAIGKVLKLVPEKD
T2 sequence (Q96SW2 whole entry): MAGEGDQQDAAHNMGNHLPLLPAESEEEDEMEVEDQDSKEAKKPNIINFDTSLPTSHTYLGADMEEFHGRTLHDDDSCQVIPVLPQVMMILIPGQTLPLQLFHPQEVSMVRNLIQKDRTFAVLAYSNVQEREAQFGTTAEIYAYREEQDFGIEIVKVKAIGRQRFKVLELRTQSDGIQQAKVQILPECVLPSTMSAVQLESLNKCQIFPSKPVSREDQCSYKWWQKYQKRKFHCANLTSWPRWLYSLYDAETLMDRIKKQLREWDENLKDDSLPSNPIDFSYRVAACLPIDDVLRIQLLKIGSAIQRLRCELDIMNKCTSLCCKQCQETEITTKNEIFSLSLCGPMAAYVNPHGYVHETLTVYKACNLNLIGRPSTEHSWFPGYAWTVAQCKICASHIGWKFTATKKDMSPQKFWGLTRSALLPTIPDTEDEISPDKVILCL
T2 sequence (Q16531 whole entry partner): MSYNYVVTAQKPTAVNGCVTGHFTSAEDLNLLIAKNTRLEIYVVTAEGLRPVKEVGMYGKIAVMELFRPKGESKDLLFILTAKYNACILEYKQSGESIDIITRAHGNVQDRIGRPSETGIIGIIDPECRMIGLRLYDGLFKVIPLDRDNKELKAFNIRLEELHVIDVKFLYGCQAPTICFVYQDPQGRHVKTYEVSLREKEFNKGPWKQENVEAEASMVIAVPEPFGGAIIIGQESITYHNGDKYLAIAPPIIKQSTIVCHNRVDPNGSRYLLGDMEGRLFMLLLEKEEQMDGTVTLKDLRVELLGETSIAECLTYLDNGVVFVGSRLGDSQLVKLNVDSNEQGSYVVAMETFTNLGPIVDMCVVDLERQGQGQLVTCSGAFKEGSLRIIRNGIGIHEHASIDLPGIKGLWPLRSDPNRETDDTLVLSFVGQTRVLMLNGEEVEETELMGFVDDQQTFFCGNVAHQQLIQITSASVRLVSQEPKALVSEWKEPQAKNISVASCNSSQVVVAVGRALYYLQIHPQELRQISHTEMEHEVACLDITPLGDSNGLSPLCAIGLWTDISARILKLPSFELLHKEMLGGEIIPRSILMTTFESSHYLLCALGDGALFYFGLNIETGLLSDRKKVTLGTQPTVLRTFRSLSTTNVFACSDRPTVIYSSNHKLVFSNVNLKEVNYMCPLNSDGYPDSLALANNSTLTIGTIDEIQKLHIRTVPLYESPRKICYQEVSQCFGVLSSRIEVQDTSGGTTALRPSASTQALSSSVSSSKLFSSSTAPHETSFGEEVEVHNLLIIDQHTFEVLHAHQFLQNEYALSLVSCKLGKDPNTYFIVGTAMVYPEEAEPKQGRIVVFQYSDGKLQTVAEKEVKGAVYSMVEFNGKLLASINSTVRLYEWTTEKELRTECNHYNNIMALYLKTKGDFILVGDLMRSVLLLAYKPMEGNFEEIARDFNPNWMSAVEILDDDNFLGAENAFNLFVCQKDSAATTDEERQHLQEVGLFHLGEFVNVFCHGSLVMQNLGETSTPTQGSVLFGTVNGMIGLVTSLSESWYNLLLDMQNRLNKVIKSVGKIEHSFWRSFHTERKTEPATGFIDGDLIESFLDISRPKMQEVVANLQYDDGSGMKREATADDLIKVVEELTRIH
T3 sequence (Q9UKT9 whole entry): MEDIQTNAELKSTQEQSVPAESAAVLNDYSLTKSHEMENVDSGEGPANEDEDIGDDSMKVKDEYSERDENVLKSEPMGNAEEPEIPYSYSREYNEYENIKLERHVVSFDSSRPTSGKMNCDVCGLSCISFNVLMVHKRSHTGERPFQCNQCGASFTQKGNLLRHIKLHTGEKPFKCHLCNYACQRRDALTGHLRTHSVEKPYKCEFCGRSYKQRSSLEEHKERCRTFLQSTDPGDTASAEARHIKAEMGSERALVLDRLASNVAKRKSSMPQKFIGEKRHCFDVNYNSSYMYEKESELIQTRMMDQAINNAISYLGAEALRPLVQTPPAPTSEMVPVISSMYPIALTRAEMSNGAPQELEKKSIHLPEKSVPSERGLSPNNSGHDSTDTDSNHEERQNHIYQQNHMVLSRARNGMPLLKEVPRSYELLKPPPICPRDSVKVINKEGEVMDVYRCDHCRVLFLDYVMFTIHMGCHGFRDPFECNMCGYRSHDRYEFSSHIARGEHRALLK
T3 sequence (Q96SW2 whole entry): as the sequence (Q96SW2 whole entry) above
T3 sequence (Q16531 whole entry partner): as the sequence (Q16531 whole entry partner) above
Chain of IKZF1 (Q16531 whole entry): as the sequence (Q16531 whole entry partner) above
Chain of IKZF1 (Q96SW2 whole entry): as the sequence (Q96SW2 whole entry) above
Chain of IKZF1 (Q13422 whole entry): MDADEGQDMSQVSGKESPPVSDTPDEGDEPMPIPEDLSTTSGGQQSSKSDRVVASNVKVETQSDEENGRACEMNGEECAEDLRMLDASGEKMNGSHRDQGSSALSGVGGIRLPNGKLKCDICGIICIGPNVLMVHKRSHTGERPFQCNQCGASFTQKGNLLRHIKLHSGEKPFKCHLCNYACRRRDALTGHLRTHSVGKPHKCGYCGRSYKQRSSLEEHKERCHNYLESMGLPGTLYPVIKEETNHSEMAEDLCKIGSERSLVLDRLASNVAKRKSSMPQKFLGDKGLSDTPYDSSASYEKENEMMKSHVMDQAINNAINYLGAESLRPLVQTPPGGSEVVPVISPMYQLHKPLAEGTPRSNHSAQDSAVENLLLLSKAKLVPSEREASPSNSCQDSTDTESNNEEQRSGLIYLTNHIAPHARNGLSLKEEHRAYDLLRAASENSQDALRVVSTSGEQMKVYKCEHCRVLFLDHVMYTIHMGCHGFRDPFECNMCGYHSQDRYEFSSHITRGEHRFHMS
T4 sequence (P30291 whole entry): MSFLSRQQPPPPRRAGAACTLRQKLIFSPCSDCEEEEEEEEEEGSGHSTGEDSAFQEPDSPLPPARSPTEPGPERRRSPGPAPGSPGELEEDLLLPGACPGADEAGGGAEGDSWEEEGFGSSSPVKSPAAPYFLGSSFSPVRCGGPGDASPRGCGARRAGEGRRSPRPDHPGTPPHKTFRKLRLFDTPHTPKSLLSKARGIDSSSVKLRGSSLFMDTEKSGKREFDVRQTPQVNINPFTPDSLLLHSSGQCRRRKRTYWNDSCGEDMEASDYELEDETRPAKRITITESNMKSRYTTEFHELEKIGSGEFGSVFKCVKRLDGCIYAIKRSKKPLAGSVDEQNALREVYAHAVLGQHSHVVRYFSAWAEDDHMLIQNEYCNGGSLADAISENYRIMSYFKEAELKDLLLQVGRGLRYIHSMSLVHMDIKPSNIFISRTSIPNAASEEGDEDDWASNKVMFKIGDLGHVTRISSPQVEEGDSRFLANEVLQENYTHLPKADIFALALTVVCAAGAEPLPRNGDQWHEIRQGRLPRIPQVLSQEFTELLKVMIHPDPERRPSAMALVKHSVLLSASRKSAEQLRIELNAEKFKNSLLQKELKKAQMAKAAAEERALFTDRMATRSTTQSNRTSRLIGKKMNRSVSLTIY

Nc1cccc2c1CN(C1CCC(=O)NC1=O)C2=O (stereo not shown) [lenalidomide]
cell viability (killing curve) of DEPDC5 knockout cells compared to the control group [1]: exhibit resistance

NS(=O)(=O)c1ccc(S(=O)(=O)Nc2cccc3c(Cl)c[nH]c23)cc1 [indisulam]
degradation of the substrate RBM39, combination with rapamycin vs alone [2]: stronger degradation effect

O=C1CC[C@H](N2Cc3c(OCc4ccc(CN5CCOCC5)cc4)cccc3C2=O)C(=O)N1 [CC-220]
cell viability (killing curve) of DEPDC5 knockout cells compared to the control group [1]: exhibit resistance

Cc1nc2cccc(N)c2c(=O)n1C1CCC(=O)NC1=O (stereo not shown) [CC-122]
cell viability (killing curve) of DEPDC5 knockout cells compared to the control group [1]: exhibit resistance

Cc1ccc(NC(=O)NCc2ccc3c(c2)CN(C2CCC(=O)NC2=O)C3=O)cc1Cl (stereo not shown) [CC-885]
level of substrate protein GSPT1 [3]: significantly reduced | degradation of the substrate GSPT1, combination with everolimus ([4]; CC-90009 1 μM or CC-885 0.1 μM + everolimus 0.01, 0.1 μM): stronger degradation effect | degradation of the substrate GSPT1, combination with rapamycin ([4]; CC-90009 1 μM or CC-885 0.1 μM + rapamycin 0.01, 0.1 μM): stronger degradation effect

N#Cc1ccc(N2CCN(Cc3ccc(COc4cccc5c4CN([C@H]4CCC(=O)NC4=O)C5=O)cc3)CC2)c(F)c1 [CC-92480]
killing effect on myeloma cells, co-administered with rapamycin [5]: stronger killing effect | degradation of the substrate IKZF3, co-administration with rapamycin [6]: enhance the degradation

C=CCn1c(=O)c2cnc(Nc3ccc(N4CCN(CCCNc5cccc6c5C(=O)N(C5CCC(=O)NC5=O)C6=O)CC4)cc3)nc2n1-c1cccc(C(C)(C)O)n1 (stereo not shown) [ZNL-02-096]
degradation of the substrate Wee1, combination with rapamycin vs alone [7]: stronger degradation effect

Cc1ncsc1-c1ccc([C@H](C)NC(=O)[C@@H]2C[C@@H](O)CN2C(=O)[C@@H](NC(=O)COCCCOCCNC(=O)C[C@@H]2N=C(c3ccc(Cl)cc3)c3c(sc(C)c3C)-n3c(C)nnc32)C(C)(C)C)cc1 [ARV-771]
degradation of the substrate BRD4, combination with rapamycin vs alone [8]: stronger degradation effect

Nc1cccc2c1C(=O)N(C1CCC(=O)NC1=O)C2=O (stereo not shown) [pomalidomide]
level of the substrate IKZF3 ([9]; 25 nM pomalidomide co-administered with varying concentrations of rapamycin, OPM2, RPMI-8226, U266, 24 h): significantly reduced | degradation of the substrate IKZF3, combination with everolimus [9, 16]: stronger degradation effect | killing of myeloma cells, combination with rapamycin vs pomalidomide alone [10]: stronger effect in killing myeloma cells | killing of myeloma cells, combination with rapamycin vs pomalidomide alone [11]: stronger effect in killing myeloma cells | killing of myeloma cells, combination with rapamycin vs pomalidomide alone [12]: stronger effect in killing myeloma cells | degradation of IKZF1 ([13]; 25 nM pomalidomide co-administered with rapamycin, OPM2, RPMI-8226, U266, 24 h): enhances the degradation | degradation of the substrate IKZF1, combination with everolimus [13, 16]: stronger degradation effect | killing of myeloma cells, combination with rapamycin vs pomalidomide alone [14]: stronger effect in killing myeloma cells | killing of myeloma cells, combination with rapamycin vs pomalidomide alone [15]: stronger effect in killing myeloma cells | cell viability (killing curve) of DEPDC5 knockout cells compared to the control group [1]: exhibit resistance | degradation of the substrate IKZF3, co-administration with rapamycin [6]: enhance the degradation

— patent publication US20260166038A1, “METHOD OF ENHANCING THE EFFICACY OF A TARGETED PROTEIN DEGRADER AND ITS DERIVATIVE THERAPEUTICS” (ShanghaiTech University, priority 2022, published 2026)
